PMC7026418, “The kinase polypharmacology landscape of clinical PARP inhibitors” (Scientific Reports, 2020)
Like-named read-outs stand apart in the source and are kept apart here. Values belong to the compound of their own block, whether it stands above or below them.

How the values were obtained:
Assay in all cases: biochemical
Set-up in all cases: DiscoveRx KINOMEscan active site-directed competition binding; percent of control kinase bound to immobilised ligand
[1] = target: T1, FLT3(D835Y) (Homo sapiens, UniProt P36888, D835Y)
T1 sequence (P36888 1-993 D835Y): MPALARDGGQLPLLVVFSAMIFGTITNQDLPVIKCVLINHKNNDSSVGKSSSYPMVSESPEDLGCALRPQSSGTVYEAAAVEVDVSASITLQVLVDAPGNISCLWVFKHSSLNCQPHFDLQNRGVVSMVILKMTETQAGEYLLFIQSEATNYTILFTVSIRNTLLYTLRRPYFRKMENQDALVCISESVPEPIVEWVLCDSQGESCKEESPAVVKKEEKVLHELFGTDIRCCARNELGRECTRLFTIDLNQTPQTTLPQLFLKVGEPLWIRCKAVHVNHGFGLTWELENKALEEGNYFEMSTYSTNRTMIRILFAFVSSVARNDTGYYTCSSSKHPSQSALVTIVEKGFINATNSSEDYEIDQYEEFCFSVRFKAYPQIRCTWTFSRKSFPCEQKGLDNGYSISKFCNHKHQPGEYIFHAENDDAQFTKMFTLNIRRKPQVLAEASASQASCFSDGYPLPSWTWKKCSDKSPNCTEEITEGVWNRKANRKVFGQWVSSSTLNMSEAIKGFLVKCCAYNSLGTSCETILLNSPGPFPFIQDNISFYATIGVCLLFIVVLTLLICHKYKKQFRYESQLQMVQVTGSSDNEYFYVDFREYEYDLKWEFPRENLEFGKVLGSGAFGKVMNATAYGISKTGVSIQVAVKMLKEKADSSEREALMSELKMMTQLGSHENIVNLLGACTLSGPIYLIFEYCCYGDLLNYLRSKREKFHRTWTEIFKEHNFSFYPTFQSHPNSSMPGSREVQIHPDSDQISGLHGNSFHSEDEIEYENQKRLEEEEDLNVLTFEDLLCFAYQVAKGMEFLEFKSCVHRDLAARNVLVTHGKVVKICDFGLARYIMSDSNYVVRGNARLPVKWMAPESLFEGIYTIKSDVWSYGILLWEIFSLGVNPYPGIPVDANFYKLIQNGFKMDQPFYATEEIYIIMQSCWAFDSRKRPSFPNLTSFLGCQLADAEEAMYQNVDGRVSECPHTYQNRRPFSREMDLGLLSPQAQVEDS

[2] = target: RIOK2 (Homo sapiens, UniProt Q9BVS4)
[3] = target: T2, TAOK1 (Homo sapiens, UniProt Q7L7X3)
T2 sequence (Q7L7X3 1-1001): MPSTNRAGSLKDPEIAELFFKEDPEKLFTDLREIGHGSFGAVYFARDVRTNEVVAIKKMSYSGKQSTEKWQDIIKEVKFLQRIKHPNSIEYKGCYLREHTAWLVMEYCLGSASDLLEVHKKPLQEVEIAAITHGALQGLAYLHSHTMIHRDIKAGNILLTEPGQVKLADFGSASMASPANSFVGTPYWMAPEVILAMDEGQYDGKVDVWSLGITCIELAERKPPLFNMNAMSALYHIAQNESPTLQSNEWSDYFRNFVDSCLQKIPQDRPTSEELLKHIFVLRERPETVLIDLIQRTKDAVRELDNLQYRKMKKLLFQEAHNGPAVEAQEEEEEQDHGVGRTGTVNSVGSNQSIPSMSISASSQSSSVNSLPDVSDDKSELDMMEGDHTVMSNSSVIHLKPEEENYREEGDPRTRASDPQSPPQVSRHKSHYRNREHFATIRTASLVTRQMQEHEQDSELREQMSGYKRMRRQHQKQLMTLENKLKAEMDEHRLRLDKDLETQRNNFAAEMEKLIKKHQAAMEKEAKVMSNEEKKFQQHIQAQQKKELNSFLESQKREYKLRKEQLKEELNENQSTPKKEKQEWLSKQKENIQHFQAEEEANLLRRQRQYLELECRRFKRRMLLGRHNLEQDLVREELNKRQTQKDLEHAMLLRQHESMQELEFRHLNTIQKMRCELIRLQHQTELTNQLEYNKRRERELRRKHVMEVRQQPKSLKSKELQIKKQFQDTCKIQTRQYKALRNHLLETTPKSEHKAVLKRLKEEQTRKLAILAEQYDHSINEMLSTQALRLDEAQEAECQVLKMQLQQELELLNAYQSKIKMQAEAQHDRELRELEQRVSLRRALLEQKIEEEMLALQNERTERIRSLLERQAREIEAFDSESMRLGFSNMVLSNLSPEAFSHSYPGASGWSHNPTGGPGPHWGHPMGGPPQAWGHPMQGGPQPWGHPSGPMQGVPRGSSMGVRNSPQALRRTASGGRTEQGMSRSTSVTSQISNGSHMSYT

[4] = target: ABL2 (Homo sapiens, UniProt P42684)
[5] = read-out: Olaparib / %Ctrl @ 10000nM
[6] = read-out: Talazoparib (BMN 673) / %Ctrl @ 10000nM
[7] = read-out: Rucaparib / %Ctrl @ 10000nM, binding competition, % of control
[8] = read-out: Niraparib (MK-4827) / %Ctrl @ 10000nM

Chain of ABL2 (P42684 whole entry): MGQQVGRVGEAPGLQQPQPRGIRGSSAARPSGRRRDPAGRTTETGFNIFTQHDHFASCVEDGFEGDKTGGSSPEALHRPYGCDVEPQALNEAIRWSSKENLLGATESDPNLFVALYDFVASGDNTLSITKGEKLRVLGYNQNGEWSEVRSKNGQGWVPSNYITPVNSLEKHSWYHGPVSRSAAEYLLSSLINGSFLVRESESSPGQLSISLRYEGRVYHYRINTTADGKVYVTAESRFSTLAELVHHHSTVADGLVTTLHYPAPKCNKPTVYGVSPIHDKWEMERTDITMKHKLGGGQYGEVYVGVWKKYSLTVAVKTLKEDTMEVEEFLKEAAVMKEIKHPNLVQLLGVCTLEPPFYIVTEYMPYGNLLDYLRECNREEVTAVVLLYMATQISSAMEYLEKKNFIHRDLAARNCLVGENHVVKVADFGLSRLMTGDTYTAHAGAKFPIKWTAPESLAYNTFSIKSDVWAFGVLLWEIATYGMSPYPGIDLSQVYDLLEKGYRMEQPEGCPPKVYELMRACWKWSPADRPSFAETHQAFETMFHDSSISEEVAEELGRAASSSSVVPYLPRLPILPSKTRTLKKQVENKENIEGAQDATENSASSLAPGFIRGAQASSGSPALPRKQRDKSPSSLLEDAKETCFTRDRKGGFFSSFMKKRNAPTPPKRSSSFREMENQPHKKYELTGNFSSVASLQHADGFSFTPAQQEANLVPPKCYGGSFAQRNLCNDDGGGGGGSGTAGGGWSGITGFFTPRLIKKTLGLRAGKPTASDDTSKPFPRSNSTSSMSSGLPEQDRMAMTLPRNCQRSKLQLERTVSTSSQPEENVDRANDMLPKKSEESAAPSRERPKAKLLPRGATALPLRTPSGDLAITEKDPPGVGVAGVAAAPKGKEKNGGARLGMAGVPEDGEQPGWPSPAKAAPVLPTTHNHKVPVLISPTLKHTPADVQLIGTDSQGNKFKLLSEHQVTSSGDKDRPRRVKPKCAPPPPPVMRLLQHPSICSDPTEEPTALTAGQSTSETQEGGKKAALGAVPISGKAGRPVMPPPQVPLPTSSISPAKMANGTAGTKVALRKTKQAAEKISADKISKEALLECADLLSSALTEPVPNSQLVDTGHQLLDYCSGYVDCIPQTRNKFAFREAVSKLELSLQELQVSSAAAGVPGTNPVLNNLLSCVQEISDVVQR
Chain of RIOK2 (Q9BVS4 whole entry): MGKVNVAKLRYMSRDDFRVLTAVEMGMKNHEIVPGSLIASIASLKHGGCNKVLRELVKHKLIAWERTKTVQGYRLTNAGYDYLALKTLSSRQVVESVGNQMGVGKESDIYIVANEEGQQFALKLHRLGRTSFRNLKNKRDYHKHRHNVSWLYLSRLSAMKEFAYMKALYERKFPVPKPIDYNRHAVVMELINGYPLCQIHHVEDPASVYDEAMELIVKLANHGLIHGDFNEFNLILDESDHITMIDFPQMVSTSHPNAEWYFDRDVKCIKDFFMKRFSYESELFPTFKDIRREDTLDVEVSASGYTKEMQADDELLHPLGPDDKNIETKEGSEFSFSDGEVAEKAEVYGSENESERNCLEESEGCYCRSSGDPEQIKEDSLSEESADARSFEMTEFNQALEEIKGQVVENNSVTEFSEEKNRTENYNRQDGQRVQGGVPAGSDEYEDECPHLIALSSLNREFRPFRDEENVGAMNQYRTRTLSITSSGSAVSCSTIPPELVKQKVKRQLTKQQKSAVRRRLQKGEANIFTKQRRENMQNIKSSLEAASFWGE

- percent of control binding at 10 µM [1, 5]: 87%
- percent of control binding at 10 µM [2, 5]: 84%
- percent of control binding at 10 µM [3, 5]: 96%
- percent of control binding at 10 µM [4, 5]: 100%
Compound: O=C(c1cc(Cc2n[nH]c(=O)c3ccccc23)ccc1F)N1CCN(C(=O)C2CC2)CC1 [Olaparib]

- percent of control binding at 10 µM [1, 6]: 96%
- percent of control binding at 10 µM [2, 6]: 100%
- percent of control binding at 10 µM [3, 6]: 100%
- percent of control binding at 10 µM [4, 6]: 93%
Compound: Cn1ncnc1[C@H]1c2n[nH]c(=O)c3cc(F)cc(c23)N[C@@H]1c1ccc(F)cc1 [Talazoparib]

- Rucaparib / %Ctrl @ 10000nM ([1]; binding competition, % of control): 24%
- percent of control binding at 10 µM [2, 7]: 69%
- percent of control binding at 10 µM [3, 7]: 72%
- percent of control binding at 10 µM [4, 7]: 100%
Compound: CNCc1ccc(-c2[nH]c3cc(F)cc4c3c2CCNC4=O)cc1 [Rucaparib]

Compound: NC(=O)c1cccc2cn(-c3ccc([C@@H]4CCCNC4)cc3)nc12 [Niraparib]
- percent of control binding at 10 µM [1, 8]: 54%
- percent of control binding at 10 µM [2, 8]: 67%
- percent of control binding at 10 µM [3, 8]: 80%
- percent of control binding at 10 µM [4, 8]: 85%
